In the supplement of paper PMC10331698:
± gives the standard deviation of the averaged measurements.

Columns and labels:
Assay in all cases: level (log10 ratio to DMSO vehicle control); higher = higher biomarker level / cell amount than vehicle control
[1] = compound: O=P(O)(O)CCC(F)(F)C(F)(F)C(F)(F)C(F)(F)C(F)(F)C(F)(F)F [2-(Perfluorohexyl)ethylphosphonic acid]; details: in DMSO
Method: (§1)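 BioMAP Diversity Plus panel of 12 human primary cell co-culture systems (3C, 4H, LPS, SAg, BT, BF4T, BE3C, CASM3C, HDF3CGF, KF3CT, MyoF, Mphg). Compounds were added 1 h before stimulation and left for 24 h (MyoF 48 h; BT 72 h for soluble read-outs or 6 d for IgG). Biomarkers were read by ELISA, cytotoxicity by SRB, PBMC viability and proliferation by Alamar Blue. Each well value was divided by the mean of 8 DMSO control wells on the same plate and log10 transformed; duplicate blinded samples were tested at 4 concentrations.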

[2] = compound: OCC(F)(F)C(F)(F)C(F)(F)C(F)(F)C(F)(F)C(F)(F)C(F)(F)C(F)(F)C(F)(F)C(F)(F)C(F)(F)F [11:1 Fluorotelomer alcohol]; details: in DMSO
Method: as §1

[3] = compound: C=CC(=O)OCC(F)(F)C(F)(F)C(F)(F)C(F)(F)C(F)(F)C(F)(F)C(F)(F)C(F)F [1H,1H,9H-Perfluorononyl acrylate]; details: in DMSO
Method: as §1

[4] = compound: C=CC(=O)OCC(F)(F)C(F)(F)C(F)(F)C(F)(F)COC(=O)C=C [1H,1H,6H,6H-Perfluorohexane-1,6-diol diacrylate]; details: 6700 nM; in DMSO
Method: as §1

[5] = compound: OCCCCC(F)(F)C(F)(F)C(F)(F)C(F)(F)F [4:4 Fluorotelomer alcohol]; details: in DMSO
Method: as §1

[6] = compound: FC(F)(F)C(F)(F)C(F)(F)C(F)(F)CCI [1H,1H,2H,2H-Perfluorohexyl iodide]; details: in DMSO
Method: as §1

[7] = compound: O=C(O)C(F)(F)C(F)(F)C(F)(F)C(F)(F)C(F)(F)C(F)(F)C(F)(F)F [Ammonium perfluorooctanoate]; details: in DMSO
Method: as §1

Row | Test System | level (log10) ([1]; 6700 nM) | level (log10) ([1]; 20000 nM) | level (log10) ([1]; 60000 nM) | level (log10) ([2]; 1100 nM) | level (log10) ([2]; 3300 nM) | level (log10) ([2]; 10000 nM) | level (log10) ([3]; 6700 nM) | level (log10) ([3]; 20000 nM) | level (log10) ([3]; 60000 nM) | level (log10) [4] | level (log10) ([5]; 6700 nM) | level (log10) ([5]; 20000 nM) | level (log10) ([5]; 60000 nM) | level (log10) ([6]; 6700 nM) | level (log10) ([6]; 20000 nM) | level (log10) ([6]; 60000 nM) | level (log10) ([7]; 6700 nM) | level (log10) ([7]; 20000 nM) | level (log10) ([7]; 60000 nM)
1 | 3C:CD106/VCAM-1 | -0.012 ± 0.03 | -0.004 ± 0.025 | 0.0055 ± 0.061 | 0.008 ± 0.016 | 0.007 | 0.022 ± 0.0099 | -0.03 | -0.022 ± 0.0057 | -0.042 ± 0.02 | -0.058 ± 0.0071 | -0.01 ± 0.0057 | -0.01 ± 0.016 | -0.0015 ± 0.0035 | 0.0045 ± 0.026 | -0.015 ± 0.0014 | -0.0145 ± 0.021 | 0.004 ± 0.03 | -0.0025 ± 0.03 | 0.019 ± 0.041
2 | MyoF:bFGF | -0.0415 ± 0.011 | -0.0285 ± 0.00071 | -0.0255 ± 0.021 | 0.002 ± 0.0071 | 0.008 ± 0.014 | 0.004 ± 0.021 | 0.012 ± 0.0057 | 0.0155 ± 0.021 | 0.027 ± 0.0014 | 0.0155 ± 0.0064 | 0.0035 ± 0.0035 | -0.009 ± 0.021 | 0.005 ± 0.042 | 0.0095 ± 0.021 | 0.0205 ± 0.026 | 0.0285 ± 0.042 | 0 ± 0.013 | -0.007 ± 0.014 | 0.0015 ± 0.015
3 | HDF3CGF:SRB | -0.025 ± 0.045 | 0.0355 ± 0.029 | 0.001 ± 0.05 | -0.0055 ± 0.011 | -0.0055 ± 0.016 | 0.0315 ± 0.036 | -0.017 ± 0.059 | -0.011 ± 0.072 | -0.0635 ± 0.079 | -0.291 ± 0.028 | 0.0015 ± 0.036 | -0.0165 ± 0.0064 | 0.006 ± 0.018 | 0.0085 ± 0.037 | -0.011 ± 0.0014 | 0.0105 ± 0.028 | 0.057 ± 0.055 | 0.078 ± 0.0099 | 0.0945 ± 0.047
4 | MyoF:SRB | -0.0075 ± 0.011 | -0.004 ± 0.0071 | -0.007 ± 0.0057 | 0 ± 0.0042 | -0.0015 ± 0.012 | 0.0015 ± 0.016 | -0.0055 ± 0.0078 | -0.016 ± 0.0042 | -0.0725 ± 0.019 | -0.0185 ± 0.013 | -0.0025 ± 0.0035 | -0.0065 ± 0.0021 | 0.006 ± 0.017 | 0.008 ± 0.0042 | 0.0055 ± 0.012 | 0.004 ± 0.018 | 0.0005 ± 0.011 | 0.01 ± 0.011 | -0.048 ± 0.014
5 | 3C:CCL2/MCP-1 | 0.001 ± 0.0042 | -0.0035 ± 0.019 | 0.019 ± 0.054 | -0.0005 ± 0.0064 | -0.007 ± 0.021 | 0.003 ± 0.04 | 0.0115 ± 0.053 | -0.017 ± 0.016 | 0.008 ± 0.024 | 0.025 ± 0.044 | 0.004 ± 0.014 | -0.0205 ± 0.011 | -0.0105 ± 0.037 | 0.015 ± 0.0014 | -0.0195 ± 0.0092 | 0.0055 ± 0.026 | -0.002 ± 0.0099 | 0.004 ± 0.025 | 0.0315 ± 0.035
6 | 3C:CD62E/E-Selectin | -0.0115 ± 0.0078 | 0 ± 0.0085 | -0.001 ± 0.024 | -0.0125 ± 0.013 | 0.008 ± 0.0028 | 0.0155 ± 0.0078 | -0.005 | -0.019 ± 0.0099 | -0.014 ± 0.018 | -0.066 ± 0.0057 | -0.004 ± 0.0014 | -0.0055 ± 0.032 | 0.0105 ± 0.012 | -0.003 ± 0.0042 | -0.0225 ± 0.018 | 0.005 ± 0.014 | 0.006 ± 0.011 | -0.007 ± 0.017 | 0.0085 ± 0.046
7 | MyoF:MMP-1 | 0.008 ± 0.0042 | 0.008 ± 0.0099 | 0.0755 ± 0.052 | -0.027 ± 0.0042 | -0.0445 ± 0.0021 | 0.004 ± 0.052 | -0.001 ± 0.054 | 0.0505 ± 0.0064 | 0.27 ± 0.033 | 0.231 ± 0.023 | 0.002 ± 0.0057 | 0.007 ± 0.023 | 0.032 ± 0.076 | -0.0055 ± 0.023 | -0.0045 ± 0.039 | 0.066 ± 0.11 | -0.029 ± 0.016 | -0.0145 ± 0.019 | 0.0415 ± 0.013
8 | CASM3C:CD142/Tissue Factor | -0.0165 ± 0.0064 | -0.007 ± 0.014 | -0.033 ± 0.0071 | -0.013 ± 0.02 | -0.0225 ± 0.016 | -0.038 ± 0.02 | 0.0345 ± 0.026 | -0.003 ± 0.061 | -0.016 ± 0.0014 | -0.004 ± 0.059 | -0.0265 ± 0.015 | -0.0055 ± 0.0064 | 0.0285 ± 0.018 | -0.019 ± 0.034 | -0.0065 ± 0.0078 | 0.0235 ± 0.035 | 0.005 ± 0.028 | -0.009 ± 0.025 | -0.01 ± 0.024
9 | MyoF:alpha-SM Actin | 0.037 ± 0.079 | 0.0415 ± 0.067 | 0.0575 ± 0.063 | -0.0025 ± 0.015 | -0.0195 ± 0.03 | 0.0045 ± 0.018 | -0.041 ± 0.0014 | -0.075 ± 0.011 | -0.182 ± 0.028 | -0.157 ± 0.012 | 0.025 ± 0.041 | 0.0195 ± 0.04 | 0.041 ± 0.055 | 0.03 ± 0.064 | 0.0325 ± 0.064 | 0.043 ± 0.034 | -0.0145 ± 0.0078 | -0.016 ± 0.0071 | -0.0295 ± 0.04
10 | CASM3C:LDLR | -0.011 ± 0.017 | -0.0115 ± 0.0092 | -0.0135 ± 0.0092 | -0.0055 ± 0.0021 | -0.0095 ± 0.0064 | 0 ± 0.035 | -0.0545 ± 0.026 | 0.0515 ± 0.042 | 0.0355 ± 0.063 | 0.001 ± 0.028 | 0.016 ± 0.0042 | 0.0175 ± 0.022 | 0.03 ± 0.042 | 0.0305 ± 0.021 | 0.02 ± 0.035 | 0.0415 ± 0.053 | -0.0015 ± 0.018 | 0 ± 0.031 | 0.0085 ± 0.039
11 | HDF3CGF:TIMP-2 | 0.0095 ± 0.042 | 0.0365 ± 0.036 | 0.0305 ± 0.036 | 0.001 ± 0.0042 | -0.045 ± 0.016 | -0.0325 ± 0.013 | 0.025 ± 0.092 | -0.0355 ± 0.032 | -0.1545 ± 0.00071 | -0.104 ± 0.066 | -0.004 ± 0.0099 | 0.024 ± 0.028 | -0.0225 ± 0.026 | -0.0105 ± 0.013 | -0.023 ± 0.021 | -0.115 ± 0.0064 | 0.0225 ± 0.015 | 0.0535 ± 0.039 | 0.047 ± 0.05
12 | MyoF:Collagen I | -0.0025 ± 0.005 | -0.0045 ± 0.0021 | 0.0085 ± 0.011 | 0.051 ± 0.047 | 0.0475 ± 0.021 | 0.0435 ± 0.013 | 0.0005 ± 0.023 | 0.0025 ± 0.00071 | -0.033 ± 0.028 | -0.01 ± 0.052 | 0.004 ± 0.0014 | -0.002 ± 0.016 | 0.0065 ± 0.026 | -0.0005 ± 0.0035 | 0.0005 ± 0.022 | 0.0205 ± 0.042 | -0.006 ± 0.0014 | 0.0025 ± 0.013 | -0.0125 ± 0.015
13 | MyoF:CXCL8/IL-8 | -0.013 ± 0.013 | 0.018 ± 0.018 | 0.0795 ± 0.018 | -0.0155 ± 0.035 | -0.0145 ± 0.037 | 0 ± 0.04 | -0.024 ± 0.031 | -0.006 ± 0.03 | 0.0205 ± 0.013 | -0.049 ± 0.035 | 0.041 ± 0.075 | 0.0345 ± 0.1 | 0.0695 ± 0.13 | 0.065 ± 0.1 | 0.078 ± 0.1 | 0.142 ± 0.12 | 0.019 ± 0.011 | 0.004 ± 0.017 | 0.036 ± 0.065
14 | HDF3CGF:TIMP-1 | -0.0115 ± 0.018 | 0.0035 ± 0.005 | 0.0545 ± 0.06 | -0.029 ± 0.024 | -0.07 ± 0.0085 | -0.033 ± 0.016 | 0.001 ± 0.042 | -0.0005 ± 0.04 | -0.0165 ± 0.047 | -0.203 ± 0.0021 | -0.006 ± 0.017 | -0.001 ± 0.034 | 0.02 ± 0.057 | 0.012 ± 0.037 | -0.0115 ± 0.05 | -0.065 ± 0.083 | 0.013 ± 0.0028 | 0.0065 ± 0.016 | 0.008 ± 0.02
15 | KF3CT:CCL2/MCP-1 | -0.0405 ± 0.019 | -0.0515 ± 0.023 | -0.043 ± 0.013 | 0.0265 ± 0.013 | 0.0205 ± 0.00071 | 0.0305 ± 0.00071 | -0.0075 ± 0.043 | -0.057 ± 0.024 | -0.137 ± 0.085 | -0.101 ± 0.045 | -0.0035 ± 0.057 | 0.004 ± 0.044 | 0.0225 ± 0.042 | -0.0255 ± 0.026 | -0.015 ± 0.04 | -0.004 ± 0.047 | 0.011 ± 0.024 | -0.0245 ± 0.036 | -0.119 ± 0.0064
